The source of these data is patent US8674096B2, “Substituted imidazo[1,5-a]quinoxalin-4-ones as phosphodiesterase 9 inhibitors” (priority 2009, dated 2014).

Each structure is given as a SMILES string.

The target in data set [1] is T1, PDE9 (Homo sapiens, UniProt O76083).
T1 construct: made in house
The data set is described as follows: PDE9-inhibiting activity (SPA, 3H-cGMP degradation). It counts as biochemical. How it is done:
The PDE9 used in the present experiment was expressed/purified by the method as in, for example, Guipponi et al., and Fisher et., al. (Fisher, D. A., et al., J. Biol. Chem., 273: pp. 15559-15564 (1998), Guipponi, M., et al., Hum. Genet., 103: pp. 386-392 (1998)).
The PDE9-inhibiting activity was measured by the following method. That is, to a buffer solution containing tris(hydroxymethyl)aminomethane-hydrochloric acid (40 mM, pH 8.0), magnesium chloride (5 mM), and 2-mercaptoethanol (4 mM) were added cGMP (1 μM) and ^3H-cGMP (0.33 μCi/ml) to give a substrate buffer solution. A test substance solution and an enzyme solution which had been adjusted to an optimal concentration were added thereto to perform a reaction at 30° C. The enzyme reaction was stopped by the addition of Scintillation Proximity Assay (SPA) Beads (GE Healthcare, UK) containing 5 mM 3-isobutyl-1-methylxanthine (IBMX). For the enzyme activity, the amount of 5′-GMP, which is a reaction degradation product bound to SPA beads, was measured with a TopCount microplate reader (Hewlett Packard, USA).
The inhibitory rate was calculated by taking the radioactivity of the control containing no test substance as (A), taking the radioactivity of the blank containing no enzyme as (B), and taking the radioactivity of the test substance as (C), and using the following equation. Inhibitory rate=100−{(C)−(B)/(A)−(B)}×100(%)

T1 sequence (O76083 whole entry): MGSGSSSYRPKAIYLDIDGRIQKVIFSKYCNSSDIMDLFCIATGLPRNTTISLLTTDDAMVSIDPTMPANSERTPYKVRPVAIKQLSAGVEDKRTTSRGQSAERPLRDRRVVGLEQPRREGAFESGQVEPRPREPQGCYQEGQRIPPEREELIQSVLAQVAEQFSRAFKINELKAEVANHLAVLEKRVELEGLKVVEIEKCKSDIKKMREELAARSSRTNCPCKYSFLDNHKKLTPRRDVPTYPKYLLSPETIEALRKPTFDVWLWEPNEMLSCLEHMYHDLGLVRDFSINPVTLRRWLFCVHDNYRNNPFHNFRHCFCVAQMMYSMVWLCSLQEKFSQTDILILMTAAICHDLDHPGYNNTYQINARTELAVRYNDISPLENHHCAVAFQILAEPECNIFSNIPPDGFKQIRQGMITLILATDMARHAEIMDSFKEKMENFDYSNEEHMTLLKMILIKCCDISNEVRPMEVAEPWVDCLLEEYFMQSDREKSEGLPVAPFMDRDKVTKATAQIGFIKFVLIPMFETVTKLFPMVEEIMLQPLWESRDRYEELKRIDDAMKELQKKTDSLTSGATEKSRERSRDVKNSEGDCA

Turning to `COc1cc2c(cc1C(=O)N1Cc3ccccc3C1)[nH]c(=O)c1nnc(C3CCOCC3)n12.Cl` [Example 338], the melting point was 228 °C (dec.). In data set [1], 28 nM corresponded to half-maximal inhibition (IC50).
For the compound `Cc1cc2c(cc1C(=O)N1CCc3cc(F)cnc31)[nH]c(=O)c1cnc(C3CCOCC3)n12.Cl` [Example 344], the melting point was 340 °C (dec.). This compound gave an IC50 in data set [1] of 7.7 nM.
On the same counts, the results for `COCc1cc2c(cc1C(=O)N1CCc3cc(Cl)ccc31)[nH]c(=O)c1nnc(C3CCOCC3)n12` [Example 347] are 198 to 201 °C and 3.3 nM.
On the same counts, the results for `COCc1cc2c(cc1C(=O)N1CCc3ncccc3C1)[nH]c(=O)c1cnc(C3CCOCC3)n12` [Example 350] are 172 to 175 °C and 9.2 nM.
On the same counts, the results for `Cc1cc2c(cc1C(=O)N1CCc3cc(Cl)ccc31)[nH]c(=O)c1nnc([C@H]3CC[C@@H](O)CC3)n12` [Example 356] are 277 to 279 °C and 1.5 nM.
With `Cc1cc2c(cc1C(=O)N1CCc3cc(Cl)ccc31)[nH]c(=O)c1nnc(C(O)C3CC3)n12` (centres unmarked) [Example 359], the melting point was 260 to 262 °C (dec.). The IC50 in data set [1] amounted to 5.4 nM.
Regarding `Cc1cc2c(cc1C(=O)N1CC(C)(C)c3cc(Cl)ccc31)[nH]c(=O)c1nnc(C3CCOCC3)n12.Cl` [Example 517], the melting point lay in the range of 227 to 230 °C. In addition, the IC50 in data set [1] was determined as 0.9 nM.
For `COCc1cc2c(cc1C(=O)N1CCc3cc(F)c(F)cc31)[nH]c(=O)c1nnc(C3CCOCC3)n12.Cl` [Example 519], in that order: 266 to 269 °C and 6.8 nM.
As for `COCc1cc2c(cc1C(=O)N1CCc3cc(Cl)ccc31)[nH]c(=O)c1nnc(CC3CC3)n12.Cl` [Example 522], the melting point is 257 °C (dec.). Moreover, in data set [1], it took 3.6 nM to reach half-maximal inhibition (IC50).
On the same counts, the results for `Cc1cc2c(cc1C(=O)N1CCc3cc(Cl)ccc31)[nH]c(=O)c1cnc([C@H]3CC[C@H](C(N)=O)CC3)n12` [Example 528] are 234 to 237 °C and 0.9 nM.
